Where “and” joins values, the source holds several entries; their conditions need not be identical. Equal values may be shown once.

Assay type in all cases: functional, Homo sapiens
What all share (parameters): dose or concentration left out as unconfirmed

Experiment [1] concerns Colon cancer organoid. The experiment is described as follows: Image-based profiling of donated chemical probes and chemogenomic kinase set in O21 CRC organoid. Image analysis is performed on the sum area metric, and the data were normalized to the DMSO control. After imaging the organoid viability is measured using the OneGloEX Luciferase Assay System. The normalized viability data and sum area are reported.

For experiment [2], the system named is Colon cancer organoid. The experiment is described as follows: Image-based profiling of donated chemical probes and chemogenomic kinase set in O09 CRC organoid. Image analysis is performed on the sum area metric, and the data were normalized to the DMSO control. After imaging the organoid viability is measured using the OneGloEX Luciferase Assay System. The normalized viability data and sum area are reported.

The test system of experiment [3] is Colon cancer organoid. The experiment is described as follows: Image-based profiling of donated chemical probes and chemogenomic kinase set in O06 CRC organoid. Image analysis is performed on the sum area metric, and the data were normalized to the DMSO control. After imaging the organoid viability is measured using the OneGloEX Luciferase Assay System. The normalized viability data and sum area are reported.

With `CCC(=O)N[C@@H]1CC[C@H](C(=O)N(C)c2ccc(-c3nc4ccccc4o3)cc2)C1` [BI 99990], the “Cell Viability” value in experiment [1] (Replication number 1) is 98.1271% and 82.0828%; in experiment [1] (Replication number 2) it was 97.1544% and 80.6122%; in experiment [2] (Replication number 1) it was 148.115% and 99.6283%; in experiment [2] (Replication number 2) it was 106.898% and 85.8708%; in experiment [3] (Replication number 1), 114.692% and 101.874%; in experiment [3] (Replication number 2) it was 112.935% and 105.893%.
Turning to `COc1cc(C#N)ccc1S(=O)(=O)Nc1ccc2c(c1)cc(C)c(=O)n2C`, the “Cell Viability” value in experiment [1] (Replication number 1) was 105.091% and 139.321%; in experiment [1] (Replication number 2), 90.295% and 90.2148%; in experiment [2] (Replication number 1), 120.569% and 113.833%; in experiment [2] (Replication number 2), 161.546% and 95.5021%; in experiment [3] (Replication number 1) it was 109.695% and 120.805%; in experiment [3] (Replication number 2) it was 114.995% and 99.8938%.
As for `Nc1ccc(C(=O)Nc2cccc(-c3nc(N4CCOCC4)c4oc5ncccc5c4n3)c2)cn1`, the “Cell Viability” value in experiment [1] (Replication number 1) was 74.5315% and 72.4739%; in experiment [1] (Replication number 2) it was 83.2595% and 89.2407%; in experiment [2] (Replication number 1), 90.7287% and 76.048%; in experiment [2] (Replication number 2), 104.901% and 91.2435%; in experiment [3] (Replication number 1) it was 13.3803% and 32.049%.
Regarding `O=C(NCCCN1CCOC1=O)c1cnc(NCc2cc(Br)ccc2Br)nc1NC1CCCC1`, the “Cell Viability” value in experiment [1] (Replication number 1) was 88.4413% and 90.6749%; in experiment [1] (Replication number 2), 101.16% and 88.408%; in experiment [2] (Replication number 1), 172.879% and 128.436%; in experiment [2] (Replication number 2), 143.806% and 111.114%; in experiment [3] (Replication number 1), 128.504% and 125.145%; in experiment [3] (Replication number 2), 109.486% and 115.731%.
Take `CCCc1cc(C)[nH]c(=O)c1CNC(=O)c1cc(-c2ccc(N3CCN(C(C)C)CC3)nc2)cc2c1cnn2C(C)C`: the “Cell Viability” value in experiment [1] (Replication number 1) was 90.7936% and 81.7113%; in experiment [1] (Replication number 2), 90.0059% and 120.286%; in experiment [2] (Replication number 1) it was 144.261% and 110.819%; in experiment [2] (Replication number 2), 125.635% and 91.796%; in experiment [3] (Replication number 1), 117.017% and 105.342%; in experiment [3] (Replication number 2) it was 150.35% and 108.975%.
On to `O=C(Nc1cccnn1)N1CCC(=Cc2cccc(Oc3ccc(C(F)(F)F)cn3)c2)CC1`, for which the “Cell Viability” value was 101.123% and 116.429% in experiment [1] (Replication number 1); 106.817% and 109.694% in experiment [1] (Replication number 2); 126.629% and 132.36% in experiment [2] (Replication number 1); 65.2365% and 71.2669% in experiment [2] (Replication number 2); 84.0807% and 127.869% in experiment [3] (Replication number 1); 104.052% and 107.077% in experiment [3] (Replication number 2).
Turning to `O=C(Nc1ccc(-c2ccnc(Nc3ccc(N4CCOCC4)cc3)n2)cc1)[C@@H]1CCCN1`, the “Cell Viability” value was 122.386% and 130.453% in experiment [1] (Replication number 1); 118.022% and 143.361% in experiment [1] (Replication number 2); 74.06% and 64.3291% in experiment [2] (Replication number 1); 67.524% and 79.6356% in experiment [2] (Replication number 2); 113.887% and 133.092% in experiment [3] (Replication number 1); 82.4971% and 82.4679% in experiment [3] (Replication number 2).
Regarding `Cc1cn(-c2cc(NC(=O)c3ccc4c(c3)CN(c3cncnc3)C[C@@H]4C)cc(C(F)(F)F)c2)cn1`, the “Cell Viability” value in experiment [1] (Replication number 1) is 90.5152% and 91.8083%; in experiment [1] (Replication number 2), 113.206% and 94.0752%; in experiment [2] (Replication number 1), 138.868% and 108.886%; in experiment [2] (Replication number 2), 120.836% and 109.134%; in experiment [3] (Replication number 1) it was 59.0694% and 78.9076%; in experiment [3] (Replication number 2) it was 95.3584% and 115.454%.
Consider `Cc1cc(-n2nc(Cc3cc(F)cc(C(F)(F)F)c3)nc2C)ccc1C(N)=O` [TP-024], for which the “Cell Viability” value in experiment [1] (Replication number 1) was 86.6903% and 89.6507%; in experiment [1] (Replication number 2), 83.205% and 88.2653%; in experiment [2] (Replication number 1), 194.223% and 140.244%; in experiment [2] (Replication number 2) it was 90.9356% and 75.9401%; in experiment [3] (Replication number 1), 119.634% and 111.944%; in experiment [3] (Replication number 2), 93.5275% and 86.4673%.
As to `c1ccc2oc(-c3csc(C4CCN(Cc5nc6ncccc6[nH]5)CC4)n3)cc2c1`, the “Cell Viability” value in experiment [1] (Replication number 1) is 94.2166% and 105.311%; in experiment [1] (Replication number 2), 87.22% and 87.1856%; in experiment [2] (Replication number 1), 82.621% and 84.4067%; in experiment [2] (Replication number 2) it was 113.991% and 112.807%; in experiment [3] (Replication number 1) it was 71.3349% and 100.567%; in experiment [3] (Replication number 2), 106.728% and 127.102%.
For the molecule `CCCS(=O)(=O)c1nc(NC2CC2)cc(-c2ccc3c(ccn3C3CC(C)(C)NC(C)(C)C3)c2)n1`, the “Cell Viability” value in experiment [1] (Replication number 1) is 108.157% and 124.037%; in experiment [1] (Replication number 2), 90.7114% and 110.084%; in experiment [2] (Replication number 1), 90.8161% and 100.386%; in experiment [2] (Replication number 2) it was 72.9195% and 100.634%; in experiment [3] (Replication number 1), 33.8005% and 71.7584%; in experiment [3] (Replication number 2), 41.5782% and 52.8147%.
On to `N#Cc1cnc(Nc2cc(NC[C@H]3CNCCO3)c(C(F)(F)F)cn2)cn1` [SRA-737], for which the “Cell Viability” value was 21.4207% and 61.8815% in experiment [1] (Replication number 1); 26.4159% and 74.8471% in experiment [1] (Replication number 2); 93.3475% and 86.0215% in experiment [2] (Replication number 1); 90.1274% and 73.6966% in experiment [2] (Replication number 2); 47.9437% and 94.589% in experiment [3] (Replication number 1); 63.1754% and 83.4961% in experiment [3] (Replication number 2).
Turning to `CNc1nc(-c2ccc3c(N)n[nH]c3c2)cc(N2C[C@@H](C(=O)NC3CCCCC3)CC[C@H]2C)n1`, the “Cell Viability” value is 64.6112% and 105.857% in experiment [1] (Replication number 1); 53.2272% and 96.363% in experiment [1] (Replication number 2); 19.6659% and 24.7593% in experiment [2] (Replication number 1); 39.1039% and 41.4354% in experiment [2] (Replication number 2); 59.7664% and 83.0769% in experiment [3] (Replication number 1); 75.2742% and 90.8217% in experiment [3] (Replication number 2).
Regarding `COc1c(C)cc(NC(=O)c2nn(Cc3ccc(F)cc3)c3c2CN(C(=O)c2ccc[nH]2)C[C@]3(C)C(N)=O)cc1C`, the “Cell Viability” value in experiment [1] (Replication number 1) was 89.287% and 106.401%; in experiment [1] (Replication number 2) it was 91.8219% and 96.6587%; in experiment [2] (Replication number 1), 100.506% and 104.328%; in experiment [2] (Replication number 2), 74.723% and 85.5242%; in experiment [3] (Replication number 1), 208.8% and 152.94%; in experiment [3] (Replication number 2), 183.011% and 147.451%.
For `C[C@H]1CCCN1Cc1nc2cc(NC(=O)c3ccc4cnccc4c3)ccc2[nH]1`, the “Cell Viability” value in experiment [1] (Replication number 1) is 78.6097% and 94.644%; in experiment [1] (Replication number 2) it was 77.6333% and 81.0859%; in experiment [2] (Replication number 1), 74.8227% and 68.6244%; in experiment [2] (Replication number 2), 83.8481% and 67.5641%; in experiment [3] (Replication number 1), 103.275% and 86.0134%; in experiment [3] (Replication number 2), 127.654% and 99.8938%.
As to `CN([C@@H]1CCc2c(CC(=O)O)c3ccccc3n2C1)S(=O)(=O)c1ccc(F)cc1` [MK-7246], the “Cell Viability” value is 86.5772% and 112.354% in experiment [1] (Replication number 1); 98.7828% and 96.4286% in experiment [1] (Replication number 2); 131.189% and 119.936% in experiment [2] (Replication number 1); 71.8556% and 75.9401% in experiment [2] (Replication number 2); 103.187% and 97.4239% in experiment [3] (Replication number 1); 129.375% and 117.264% in experiment [3] (Replication number 2).

The record behind these values is ChEMBL document CHEMBL5724558, “Image-based profiling of drug vulnerabilities in CRC organoids” (2024).
